“Also recorded” adds a separate entry of the source. Ends that are not written are not given here.
How the values were obtained:
NisP = assay: Cleavage of nisin mutants by NisP in crude supernatants or purified peptide, masses by MALDI-TOF; format: biochemical, Lactococcus lactis; settings: His-tagged purified NisP, overnight 37°C; for Aberrant cleavage / misprocessing by NisP: culture pH (4.5–5.0) or pH 6.0, MALDI-TOF
Description: Alternatively, supernatants containing nisin mutant peptides produced after induction were divided into two fractions; one in which the pH was adjusted to 6.0 and the other one where the pH was the actual fermentation pH. They were incubated overnight at 37°C with or without His-tagged purified NisP at a ratio of 1000:1. After the incubation, the supernatants were precipitated using TCA and resuspended in 1/20 volume 0.05% acetic acid. For the mutants that were produced in lower amounts, larger volumes were induced and the peptides were purified by cationic exchange chromatography as described before and separated by reverse phase chromatography using a Jupiter 4 μm Proteo 90 Å 250 × 4.6 mm C12 analytical column (Phenomenex). The column was equilibrated in 20% organic solvent (acetonitrile 0.1% TFA) before the sample injection. It was washed for 5 min before applying a linear gradient from 20 to 50% organic solvent in 20 min. 1 μl of each collected peak was used for mass-spectrometry determination.
Mass spectrometry analysis of the samples was performed by matrix-assisted laser desorption/ionization (MALDI) time-of-flight (ToF) in an ABI Voyager DE Pro (Applied Biosystems) operating in linear mode as previously described using external calibration (van Heel et al., [2013]). Briefly, 1 μl sample was spotted, dried and washed with 5 μL Milli-Q water, on the target. Next, 1 μl of α-cyano-4-hydroxycinnamic acid 5 mg/ml (Sigma-Aldrich) was spotted on the sample.
We designed a set of nisin mutants to investigate the specificity of NisP (Figure 4). For all these mutants, supernatants were collected after induction and divided into three fractions. NisP was added to two of these fractions, one maintaining the pH of the culture (4.5–5.0) and the other fraction was adjusted to pH 6.0. The third fraction was used as an untreated control. After cleavage, the masses of the peptides were monitored by MALDI-TOF (Table 2).

[1] = system: L. lactis NZ9000 (pNZnisP-8H); assay: Antimicrobial activity of purified prelantibiotics against NisP producing sensor strain; format: cell-based, Lactococcus lactis; settings: compared to the plasmid free strain, data not shown
Description: (§1) Activity tests were performed by well-diffusion assay as indicated by van Heel et al. ([2013]). L. lactis NZ9000 transformed with the appropriate plasmids or Micrococcus flavus were used as sensor strains as specified in each figure. The cleavage of nisin by NisP after SDS-PAGE was monitored washing the gel according to Bhunia et al. ([1987]) and covering with an overlay of GM17 soft agar inoculated with NZ9000 (pIL3BTC pNZnisA-E3) induced with 1 ng/ml nisin. The overlay was incubated for 16 h, after which the presence of inhibition zones was evaluated.
The substrate tolerance of soluble NisP was tested using a set of different lantibiotics. These were produced using the nisin modification machinery encoded in NZ9000 (pIL3BTC pNZE3-mutant) and purified by cationic exchange chromatography. For this purpose, NZ9000 (pNZ-nisP-8H) was used as a sensor strain and tested using gallidermin (van Heel et al., [2013]) and two lantibiotics detected in the genome of Streptococcus pneumoniae, PneA1 and PneA2 encoded in the genes spr1765 and spr1766, respectively, which were heterologously expressed in L. lactis fused to the nisin leader peptide (Majchrzykiewicz et al., [2010]) (Figure 5). […] The activity was restored when a strain producing soluble NisP was employed.
Figure 5 Antimicrobial activity of purified modified lantibiotics gallidermin, 1215 and 1268 against L. lactis NZ9000 (pNZnisP-8H). […]

[2] = system: L. lactis NZ9000 (pIL253 pNZ8048); assay: Activity of the proteases in crude supernatants, antimicrobial assay against L. lactis; format: cell-based, Lactococcus lactis; settings: 1 μl protease with 50 μl supernatant containing its corresponding prenisin variant
Description: as §1
To further compare the versatility of NisP in culture conditions with various proteases frequently used in biotechnology, we mutated the last four amino acids in the leader peptide (P4-P1) of nisin (i.e., ASPR) to insert a factor Xa (IEGR) or a thrombin (AVPR) cleavage site. We also mutated the arginine in position P1 of the leader peptide into glutamic acid, creating a cleavage site for the endoprotease Glu-C. Additionally, the proposed self-cleavage sequence of NisP (VSLR) (Figure 1, van der Meer et al., [1993]) was used to replace the ASPR sequence at the end of the nisin leader peptide. […] The cleavage was evaluated by activity against NZ9000 (pIL253 pNZ8048), which is resistant to the erythromycin and chloramphenicol present in the supernatants of the substrate producer strains but sensitive to nisin. […]

Micrococcus flavus = assay: Activation of prenisin with supernatants containing NisP variants, antimicrobial assay; format: cell-based; settings: supernatants after 3 h induction; in the first test 5 μl with 50 μl prenisin
Description: as §1
The supernatants of the strains NZ9000 (pNZnisPsl-8H) and NZ9000 (pNZnisPsl-8K) were tested for the presence of protease activity after 3 h of induction with nisin. In each case, 5 μl of the supernatant was mixed with 50 μl of prenisin obtained by TCA precipitation of induced NZ9000 (pIL3BTC pNZnisA-E3). […]
In a second approach, we attempted to reduce the size of NisP, while keeping the active subtilisin-like domain intact. […] Additionally, the size of the inhibition halo measured is larger in the samples activated with the soluble protease present in the supernatants of these three engineered strains compared to the samples activated with the supernatant of L. lactis NZ9000 (pNGnisTP), which produces as a major product wild-type cell-anchored NisP.

“nisin I1D: Nisin I1D mutant (MSTKDFNLDLVSVSKKDSGASPRDTSISLCTPGCKTGALMGCNMKTATCHCSIHVSK; ends and bridges not checked; cysteine pairing not given here; UniProt P13068 1-57, looked up, variant I1D)” was tested, and the “Cleavage by NisP” value (NisP; ratio 1000:1, culture pH (4.5–5.0) or pH 6.0, MALDI-TOF) was “a small fraction of uncleaved peptide after the incubation of the mutant nisin I1D with the protease, which indicates reduced cleavage efficiency”.

In the case of “nisin I1K: Nisin I1K mutant (MSTKDFNLDLVSVSKKDSGASPRKTSISLCTPGCKTGALMGCNMKTATCHCSIHVSK; ends and bridges not checked; cysteine pairing not given here; UniProt P13068 1-57, looked up, variant I1K)”, the “Aberrant cleavage / misprocessing by NisP” value (NisP) is reported as “a small fraction of mature nisin with a mass difference consistent with the presence of Arg P1 in the mature peptide” and the “Aberrant cleavage / misprocessing by NisP” value (NisP; listed as I1K) is reported as “a small additional peak detected by mass-spectrometry consistent with a cleavage between positions P2 and P1”.

In the case of “nisin-C7A: Nisin C7A mutant, lacking the first ring (MSTKDFNLDLVSVSKKDSGASPRITSISLATPGCKTGALMGCNMKTATCHCSIHVSK; not fully specified; cysteine pairing not given here; UniProt P13068 1-57, looked up, variant C7A)”, the “Aberrant cleavage / misprocessing by NisP” value (NisP) is reported as “small peaks corresponding to peptides cleaved at abnormal P1 or P2 positions in the leader peptide; also recorded: a small fraction of nisin lacking the first amino acid(s)”.

“nisin-ringA-less: Nisin (T2V S3A S5A C7A) mutant (MSTKDFNLDLVSVSKKDSGASPRIVAIALATPGCKTGALMGCNMKTATCHCSIHVSK; not fully specified; cysteine pairing not given here; UniProt P13068 1-57, looked up, variant T2V S3A S5A C7A)” was tested, and the “Aberrant cleavage / misprocessing by NisP” value (NisP) was “small peaks corresponding to peptides cleaved at abnormal P1 or P2 positions in the leader peptide; also recorded: a small fraction of nisin lacking the first amino acid(s)”.

With “nisin: mature model lantibiotic (ITSISLCTPGCKTGALMGCNMKTATCHCSIHVSK; Lantibiotic nisin-A; UniProt P13068 24-57, looked up)” the “Sensitivity of the NisP producing strain to nisin” value [1] was “increased sensitivity”.

With thrombin the “Activity of the protease in culture conditions (release of active nisin)” value [2] was “active; also recorded: able to cleave in culture conditions”.

trypsin was tested, and the “Activity of the protease in culture conditions (release of active nisin)” value [2] was “able to cleave in culture conditions” and the “Protease activity (antimicrobial activity after activation of prenisin)” value (Micrococcus flavus) was “antimicrobial activity only in the positive controls”.

B1: NZ9000 (pNGnisTP): strain producing as a major product wild-type cell-anchored NisP (protein, UniProt Q07596 1-682, looked up)
chain: MKKILGFLFIVCSLGLSATVHGETTNSQQLLSNNINTELINHNSNAILSSTEGSTTDSINLGAQSPAVKSTTRTELDVTGAAKTLLQTSAVQKEMKVSLQETQVSSEFSKRDSVTNKEAVPVSKDELLEQSEVVVSTSSIQKNKILDNKKKRANFVTSSPLIKEKPSNSKDASGVIDNSASPLSYRKAKEVVSLRQPLKNQKVEAQPLLISNSSEKKASVYTNSHDFWDYQWDMKYVTNNGESYALYQPSKKISVGIIDSGIMEEHPDLSNSLGNYFKNLVPKGGFDNEEPDETGNPSDIVDKMGHGTEVAGQITANGNILGVAPGITVNIYRVFGENLSKSEWVARAIRRAADDGNKVINISAGQYLMISGSYDDGTNDYQEYLNYKSAINYATAKGSIVVAALGNDSLNIQDNQTMINFLKRFRSIKVPGKVVDAPSVFEDVIAVGGIDGYGNISDFSNIGADAIYAPAGTTANFKKYGQDKFVSQGYYLKDWLFTTANTGWYQYVYGNSFATPKVSGALALVVDKYGIKNPNQLKRFLLMNSPEVNGNRVLNIVDLLNGKNKAFSLDTDKGQDDAINHKSMENLKESRDTMKQEQDKEIQRNTNNNFSIKNDFHNISKEVISVDYNINQKMANNRNSRGAVSVRSQEILPVTGDGEDFLPALGIVCISILGILKRKTKN
modifications: full-length
notes: strain producing as a major product wild-type cell-anchored NisP
For B1, the “Protease activity (antimicrobial activity after activation of prenisin)” value (Micrococcus flavus) was “antimicrobial activity only in the positive controls”.

Reference: PMC5812297, “Specificity and Application of the Lantibiotic Protease NisP” (Frontiers in Microbiology, 2018)
